Measured values: patent US20230067910A1, “NOVEL COMPOUNDS FOR THE DIAGNOSIS, TREATMENT AND PREVENTION OF DISEASES ASSOCIATED WITH THE AGGREGATION OF ALPHA-SYNUCLEIN” (MODAG GMBH, priority 2019, published 2023)
Where “and” joins values, the source holds several entries; their conditions need not be identical. Equal values may be shown once. Read-outs that look alike come from different tables or passages of the source.

How the values were obtained:
[1] = target: T1, alpha-synuclein (sonicated fibrils) (Homo sapiens, UniProt P37840); experiment: Modified competition binding assay, protocol 3b, reference ligand [3H]-compound 2; details: Table 5, reference ligand [3H]-compound 2 (1 nM)
T1 construct: made in house; host or cells: E. coli
Outline: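 Sonicated recombinant human αSYN fibrils (15 nM/well) incubated with 1 nM [3H]-compound 2 and serially diluted unlabeled competitor in 30 mM Tris-HCl, 10% ethanol, 0.05% Tween20, pH 7.4, 4.5 h at RT. Filtration readout; IC50 by non-linear regression, Ki calculated using KD 0.2 nM.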

[2] = target: T2, aggregated alpha-synuclein (Homo sapiens, UniProt P37840); experiment: Autoradiography using human brain tissue (dementia with Lewy bodies); format: binding
T2 construct: made in house; host or cells: E. coli
Protocol: Autoradiography was performed on histological slices of frozen brain tissue using tritiated compound 1 and brain tissue derived from the cingulate gyrus of a patient with dementia with Lewy bodies.

[3] = target: T1, alpha-synuclein (sonicated fibrils); experiment: Modified competition binding assay, protocol 3b, reference ligand [3H]-compound 1; details: reference ligand [3H]-compound 1 (1 nM)
Protocol: Fibrils were prepared by aggregation of recombinant protein via constant agitation. In detail, 70 μM of alpha-synuclein mixed with 100 mM NaCl in 50 mM Tris, pH 7.0+0.02% NaN3 were incubated at 1,400 rpm, 37° C. for 96 h. 10 μM of tau46 were incubated with 0.03 mg/ml heparin in 50 mM Tris, pH=7.0 at 1,000 rpm, 37° C. for 72 h.
Plates were incubated for 4.5 hours at RT covered by removable sealing tape (PerkinElmer, Waltham, Mass., USA).
Filtration and readout were performed as described for saturation binding assays.
The fibril competition assay provides Ki values. […] This assay is suitable for a screening of non-radioactive ligands.

[4] = target: T3, alpha-synuclein (fibrils) (Homo sapiens, UniProt P37840); experiment: Competition binding assay, protocol 3a, reference ligand [3H]-compound 1, alpha-synuclein fibrils; details: reference ligand [3H]-compound 1 (1 nM)
T3 construct: made in house; host or cells: E. coli
Protocol: (§1) Alpha-synuclein and tau46 were purified from E. coli according to established protocols (Nuscher B, et al., J. Biol. Chem., 2004; 279(21):21966-75), Aβ1-42 was obtained from rPeptide, Watkinsville, Ga., USA. Fibrils were prepared by aggregation of recombinant protein via constant agitation. In detail, 70 μM of alpha-synuclein mixed with 100 mM NaCl in 50 mM Tris, pH 7.0+0.02% NaN3 were incubated at 1,400 rpm, 37° C. for 96 h. 10 μM of tau46 were incubated with 0.03 mg/ml heparin in 50 mM Tris, pH=7.0 at 1,000 rpm, 37° C. for 72 h. Aβ1-42 was solved in 20 mM NaPi, pH=8.0+0.2 mM EDTA+0.02% NaN3 (Deeg A A, et al., Biochim. Biophys. Acta, 2015; 1850(9): 1884-90; Goedert M, et al. Nature, 1996; 383(6600): 550-3).
(§2) A fixed concentration of sonicated human recombinant αSYN (200 nM/well) or tau46 (208 nM/well) fibrils diluted in phosphate buffered saline (PBS) were incubated in low binding plates (96 well micro test plate, Ratiolab GmbH, Dreieich, Germany) together with 1 nM [^3H]-compound 1 and 1:4 serial dilutions of the cold compound of interest starting from 1 μM diluted in 50 mM Tris-base, 10% EtOH, 0.05% Tween20, pH 7.4. For the calculation of Ki values the KD value of compound 1 toward sonicated human recombinant αSYN fibrils was set to 3 nM.
(§3) Assay plates were incubated under agitation at 37° C. for 2 h covered by plastic foil (Resealable tape, PerkinElmer, Waltham, Mass., USA). Prior to harvesting, a filter (Printed filtermat B, PerkinElmer, Waltham, Mass., USA) was incubated with 5 mg/mL polyethylenimine (PEI, Poly(ethyleneimine) solution, Sigma Aldrich Chemie GmbH, Taufkirchen, Germany) at 4° C. for 30 min. After incubation, bound and free ligands were separated by vacuum filtration using a harvester (Filtermate harvester, PerkinElmer, Waltham, Mass., USA). The filter was washed three times with buffer cooled to 4° C. and subsequently dried in the microwave for 2 min at medium power. The filter was sealed in a plastic bag (Sample bag for MicroBeta®, PerkinElmer, Waltham, Mass., USA) together with added scintillator (BETAPLATE SCINT, PerkinElmer, Waltham, Mass., USA). Accumulation of tritium was counted in a liquid scintillation counter (Wallac MicroBeta® TriLux, 1450 LSC & Luminescence Counter, PerkinElmer, Waltham, Mass., USA) immediately. Radioactivity was plotted against the increasing tritium-labeled compound or cold compound concentrations. Data points were fitted using nonlinear regression analysis in GraphPad Prism (GraphPad Software, Inc., Version 7.03, La Jolla, Calif., USA).
(§4) The fibril competition assay provides Ki values. Ki is a quantitative measure that represents the concentration of the non-radioactive tested compound (competitor ligand) required to replace 50% of a reference compound, in this case [H]-compound 1 (1 nM) or [H]-compound 2 (1 nM), which is bound to the target structures (1 nM), in our case recombinant alpha-synuclein and tau46 fibrils. This assay is suitable for a screening of non-radioactive ligands.

tau46 (fibrils) = target: T4, tau46 (fibrils) (Homo sapiens, UniProt P10636); experiment: Competition binding assay, protocol 3a, reference ligand [3H]-compound 1, tau46 fibrils; details: Experiment B, reference ligand [3H]-compound 1 (1 nM)
T4 construct: made in house; host or cells: E. coli
T4 sequence (P10636 1-412 isoform P10636-7): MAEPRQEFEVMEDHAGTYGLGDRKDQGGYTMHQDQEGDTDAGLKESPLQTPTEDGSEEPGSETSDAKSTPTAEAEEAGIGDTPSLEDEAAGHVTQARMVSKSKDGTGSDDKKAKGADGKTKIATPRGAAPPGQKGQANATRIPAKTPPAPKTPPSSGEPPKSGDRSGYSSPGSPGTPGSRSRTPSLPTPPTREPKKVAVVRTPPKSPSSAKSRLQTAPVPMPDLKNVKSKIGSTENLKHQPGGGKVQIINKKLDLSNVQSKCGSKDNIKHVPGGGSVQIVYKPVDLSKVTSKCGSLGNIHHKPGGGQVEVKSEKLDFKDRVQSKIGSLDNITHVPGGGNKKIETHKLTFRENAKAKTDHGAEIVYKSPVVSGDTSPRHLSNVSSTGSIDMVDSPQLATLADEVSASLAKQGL
Protocol: as §1, §2, §3, §4

[5] = Experiment B, read-out: Ki (nM) alpha-synuclein (sonicated fibrils)

Row | Ki [1] [nM] | Autoradiography binding pattern ([2]; [3H]-compound 1 at 3 nM, cingulate gyrus, patient with dementia with Lewy bodies) | Unspecific binding to brain tissue ([2]; specific binding blocked by excess of non-tritiated compound 1) | Ki ([3]; Table 6 comparison series, read-out: Ki (nM), sonicated alpha-synuclein fibrils) [nM] | Ki [4, 5] [nM] | Ki ([3]; Table 4b, read-out: Ki (nM) alpha-synuclein (sonicated fibrils)) [nM] | Ki (tau46 (fibrils)) [nM] | Ki ([4]; Experiment A, read-out: Ki (nM) alpha-synuclein (fibrils)) | Compound
1 | 0.1 | preferential binding to the gray matter | no to very low unspecific binding | 0.4 | – | – | – | – | CN(C)c1ccc(-c2cc(-c3ccnc(Br)c3)[nH]n2)cc1 [Compound 1, 4-[3-(4-dimethylamino-phenyl)-1H-pyrazol-5-yl]-2-bromopyridine]
2 | – | – | – | – | < 2 | 0.3 | 9 | – | CNc1ccc(-c2cc(-c3ccnc(Br)c3)[nH]n2)cc1 [Compound 2, 4-[5-(2-bromopyridin-4-yl)-1H-pyrazol-3-yl]-N-methylaniline]
3 | 3.4 | – | – | – | 9 | – | – | 47 nM and 42 nM | Fc1cc(-c2cc(-c3ccc4c(c3)OCO4)n[nH]2)ccn1 [Compound 12, 4-[3-(1,3-benzodioxol-5-yl)-1H-pyrazol-5-yl]-2-fluoropyridine]
